The molecules below were run against Cdk4/CyclinD1 (Homo sapiens (Human), UniProt P11802) (assay: Cdk4 kinase inhibition assay with recombinant Cdk4/CyclinD1, Rb substrate, [33P]-ATP filter plate). Settings: 25 μM ATP, read-out: Cdk 4 IC50.
Type: biochemical
How it was run: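 Recombinant Cdk4/CyclinD1 or Cdk6/CyclinD3 phosphorylated Rb protein with [33P]-ATP for 1 h at room temperature. Protein was TCA-precipitated on filter plates and bound radioactivity counted. IC50 by nonlinear regression.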

Cdk4/CyclinD1, sequence (P11802 whole entry): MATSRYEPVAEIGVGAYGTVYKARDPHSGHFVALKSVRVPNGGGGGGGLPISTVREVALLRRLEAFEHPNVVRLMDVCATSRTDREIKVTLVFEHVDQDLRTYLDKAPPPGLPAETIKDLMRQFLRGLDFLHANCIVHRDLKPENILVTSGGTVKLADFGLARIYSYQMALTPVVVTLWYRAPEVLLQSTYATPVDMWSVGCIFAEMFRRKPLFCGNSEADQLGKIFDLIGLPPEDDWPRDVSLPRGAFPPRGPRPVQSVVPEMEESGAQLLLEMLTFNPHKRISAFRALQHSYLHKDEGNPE
Cdk4/CyclinD1, sequence (P24385 whole entry partner): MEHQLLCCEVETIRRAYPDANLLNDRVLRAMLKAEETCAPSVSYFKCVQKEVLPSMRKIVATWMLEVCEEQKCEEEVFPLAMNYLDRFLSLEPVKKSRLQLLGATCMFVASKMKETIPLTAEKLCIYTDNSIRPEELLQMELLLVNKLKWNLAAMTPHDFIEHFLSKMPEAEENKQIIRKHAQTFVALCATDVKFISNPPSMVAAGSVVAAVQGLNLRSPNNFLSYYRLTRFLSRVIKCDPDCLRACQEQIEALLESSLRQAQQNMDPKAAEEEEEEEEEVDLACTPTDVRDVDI

Row | SMILES | IC50 [nM]
1 | NCC1CCN(c2ccc(Nc3ncc4c5ccncc5n(C5CCCC5)c4n3)nc2)CC1 [Example 60, 4-Aminomethyl-1-(6-((9-cyclopentyl-9H-pyrido[4′,3′:4,5]pyrrolo[2,3-d]pyrimidin-2-yl)amino)-3-pyridinyl)-piperidine] | 4
2 | C[C@H](CO)n1c2cnccc2c2cnc(Nc3ccc(N4CCC(N(C)C)CC4)cn3)nc21 [Example 376] | 50
3 | CC1(C)CCC(n2c3nc(Nc4ccc(N5CCC(N6CCCC6)CC5)cn4)ncc3c3ccnc(O)c32)CC1 [Example 210, 9-(4,4-dimethylcyclohexyl)-2-((5-(4-(1-pyrrolidinyl)-1-piperidinyl)-2-pyridinyl)amino)-9H-pyrido[4′,3′:4,5]pyrrolo[2,3-d]pyrimidin-8-ol] | 6.6
4 | O=C(c1ccc(Nc2ncc3c4ccnc(F)c4n(C4CCCC4)c3n2)nc1)N1CCNCC1 [Example 222, 9-cyclopentyl-8-fluoro-N-(5-(1-piperazinylcarbonyl)-2-pyridinyl)-9H-pyrido[4′,3′:4,5]pyrrolo[2,3-d]pyrimidin-2-amine] | 6
5 | CC1(C)CCC(n2c3nc(Nc4ccc(N5CCNCC5)cn4)ncc3c3ccnc(O)c32)CC1 [Example 208, 9-(4,4-dimethylcyclohexyl)-2-((5-(1-piperazinyl)-2-pyridinyl)amino)-9H-pyrido[4′,3′:4,5]pyrrolo[2,3-d]pyrimidin-8-ol] | 1.8
6 | CC1CCN(c2cnc(Nc3ncc4c5ccncc5n(C5CCCC5)c4n3)cn2)C1 (stereo not shown) [Example 88] | 477
7 | COCC(C)(C)n1c2cnccc2c2cnc(Nc3ccc(N4CCC(N(C)C)CC4)cn3)nc21 [Example 273, N-(5-(4-(dimethylamino)-1-piperidinyl)-2-pyridinyl)-9-(2-methoxy-1,1-dimethylethyl)-9H-pyrido[4′,3′:4,5]pyrrolo[2,3-d]pyrimidin-2-amine] | 19
8 | CNC1CCN(c2ccc(Nc3ncc4c5ccncc5n([C@@H]5CCOC5)c4n3)nc2)CC1 [Example 431] | 12
9 | CC1(C)CCC(n2c3cnccc3c3cnc(Nc4ccc(N5CCC(N6CCCC6)CC5)cn4)nc32)CC1 [Example 206, 9-(4,4-dimethylcyclohexyl)-N-(5-(4-(1-pyrrolidinyl)-1-piperidinyl)-2-pyridinyl)-9H-pyrido[4′,3′:4,5]pyrrolo[2,3-d]pyrimidin-2-amine] | 14
10 | CN(C)C1CCN(c2cnc(Nc3ncc4c5ccncc5n(C5CCCC5)c4n3)cn2)CC1 [Example 85] | 20
11 | C[C@@H]1CN(c2ccc(Nc3ncc4c5ccncc5n(C5CCCC5)c4n3)nc2)CCN1 [Example 61] | 1.7
12 | CCN(CC)C1CCN(c2ccc(Nc3ncc4c5ccnnc5n(C5CCCC5)c4n3)nc2)CC1 [Example 281, 9-Cyclopentyl-N-(5-(4-(diethylamino)-1-piperidinyl)-2-pyridinyl)-9H-pyrimido[5′,4′:4,5]pyrrolo[2,3-c]pyridazin-7-amine] | 11
13 | COc1nccc2c3cnc(Nc4ccc(N5CCNCC5)cn4)nc3n(C3CCC(C)(C)CC3)c12 [Example 207, 9-(4,4-dimethylcyclohexyl)-8-methoxy-N-(5-(1-piperazinyl)-2-pyridinyl)-9H-pyrido[4′,3′:4,5]pyrrolo[2,3-d]pyrimidin-2-amine] | 10
14 | C[C@@H](O)Cn1c2cnccc2c2cnc(Nc3ccc(N4CCNCC4)nn3)nc21 [Example 415] | 259
15 | CN(C)C1CCN(c2ccc(Nc3ncc4c5ccnc(O)c5n(C5CCC(C)(C)CC5)c4n3)nn2)CC1 [Example 211, 2-((6-(4-(dimethylamino)-1-piperidinyl)-3-pyridazinyl)amino)-9-(4,4-dimethylcyclohexyl)-9H-pyrido[4′,3′:4,5]pyrrolo[2,3-d]pyrimidin-8-ol] | 9.8
16 | O=C1COC2(CCN(c3ccc(Nc4ncc5c6ccncc6n(C6CCCC6)c5n4)nn3)CC2)CN1 [Example 250, 9-(6-((9-cyclopentyl-9H-pyrido[4′,3′:4,5]pyrrolo[2,3-d]pyrimidin-2-yl)amino)-3-pyridazinyl)-1-oxa-4,9-diazaspiro[5.5]undecan-3-one] | 16
17 | C[C@@H](CO)n1c2cnccc2c2cnc(Nc3ccc(N4CCC(N(C)C)CC4)nn3)nc21 [Example 372] | 129
18 | O=C(Cc1ccc(Nc2ncc3c4ccncc4n(C4CCCC4)c3n2)nc1)N1CCNCC1 [Example 245, 9-cyclopentyl-N-(5-(2-oxo-2-(1-piperazinyl)ethyl)-2-pyridinyl)-9H-pyrido[4′,3′:4,5]pyrrolo[2,3-d]pyrimidin-2-amine] | 7.4
19 | CN(CCO)c1ccc(Nc2ncc3c4ccncc4n(C4CCCC4)c3n2)nn1 [Example 291] | 3.9
20 | O=C(c1ccc(Nc2ncc3c4ccnc(O)c4n(C4CCCC4)c3n2)nc1)N1CCNCC1 [Example 223, 9-cyclopentyl-2-((5-(1-piperazinylcarbonyl)-2-pyridinyl)amino)-9H-pyrido[4′,3′:4,5]pyrrolo[2,3-d]pyrimidin-8-ol] | 13
21 | c1cncc(-c2ccc(Nc3ncc4c5ccncc5n(C5CCCC5)c4n3)nn2)c1 [Example 267, 9-Cyclopentyl-N-(6-(3-pyridinyl)-3-pyridazinyl)-9H-pyrido[4′,3′:4,5]pyrrolo[2,3-d]pyrimidin-2-amine] | 73
22 | C[C@H](CO)n1c2cnccc2c2cnc(Nc3ccc(N4CCN[C@@H](C)C4)nn3)nc21 [Example 387] | 227
23 | Fc1nccc2c3cnc(Nc4ccc(OC5CCNCC5)nn4)nc3n(C3CCCC3)c12 [Example 269, 9-Cyclopentyl-8-fluoro-N-(6-(4-piperidinyloxy)-3-pyridazinyl)-9H-pyrido[4′,3′:4,5]pyrrolo[2,3-d]pyrimidin-2-amine] | 35

Row | SMILES | IC50 [nM]
24 | C[C@@H]1CN(c2ccc(Nc3ncc4c5ccnc(F)c5n(C5CCCC5)c4n3)nc2)CCN1 [Example 178, 9-Cyclopentyl-8-fluoro-N-(5-((3R)-3-methyl-1-piperazinyl)-2-pyridinyl)-9H-pyrido[4′,3′:4,5]pyrrolo[2,3-d]pyrimidin-2-amine] | 5
25 | OC[C@@H]1CN(c2ccc(Nc3ncc4c5ccnc(F)c5n(C5CCCC5)c4n3)nc2)CCN1 [Example 199, ((2S)-4-(6-((9-cyclopentyl-8-fluoro-9H-pyrido[4′,3′:4,5]pyrrolo[2,3-d]pyrimidin-2-yl)amino)-3-pyridinyl)-2-piperazinyl)methanol] | 4.5
26 | CC1(C)CN(c2ccc(Nc3ncc4c5ccncc5n([C@@H]5CCOC5)c4n3)nn2)CCN1 [Example 430] | 21
27 | C[C@@H](CO)n1c2cnccc2c2cnc(Nc3ccc(N4CCNC(C)(C)C4)cn3)nc21 [Example 378] | 85
28 | CN(C)C1CCN(c2ccc(Nc3ncc4c5ccnc(Cl)c5n(C5CCCC5)c4n3)nn2)CC1 [Example 154, 8-Chloro-9-cyclopentyl-N-(6-(4-(dimethylamino)-1-piperidinyl)-3-pyridazinyl)-9H-pyrido[4′,3′:4,5]pyrrolo[2,3-d]pyrimidin-2-amine] | 20
29 | CN(CCO)C1CCN(c2ccc(Nc3ncc4c5ccnc(F)c5n(C5CCCC5)c4n3)nc2)CC1 [Example 195, 2-((1-(6-((9-Cyclopentyl-8-fluoro-9H-pyrido[4′,3′:4,5]pyrrolo[2,3-d]pyrimidin-2-yl)amino)-3-pyridinyl)-4-piperidinyl)(methyl)amino)ethanol] | 13
30 | OC[C@@H]1CN(c2ccc(Nc3ncc4c5ccncc5n(C5CCCC5)c4n3)nc2)CCN1 [Example 198, ((2S)-4-(6-((9-cyclopentyl-9H-pyrido[4′,3′:4,5]pyrrolo[2,3-d]pyrimidin-2-yl)amino)-3-pyridinyl)-2-piperazinyl)methanol] | 4.6
31 | C[C@H]1CN(c2ccc(Nc3ncc4c5ccncc5n([C@@H]5CCNC5)c4n3)nc2)CCN1 [Example 339] | 300
32 | NCC1CCCN(c2ccc(Nc3ncc4c5ccncc5n(C5CCCC5)c4n3)nc2)C1 (stereo not shown) [Example 67] | 1.3
33 | CNC1CCN(c2ccc(Nc3ncc4c5ccncc5n([C@@H](C)CO)c4n3)nc2)CC1 [Example 367] | 350
34 | CNC1CCN(c2ccc(Nc3ncc4c5ccncc5n(C[C@@H](C)O)c4n3)nc2)CC1 [Example 425] | 73
35 | O[C@@H]1CCC[C@@H]1n1c2cnccc2c2cnc(Nc3ccc(N4CCNCC4)nn3)nc21 [Example 362] | 162
36 | CC[C@H](C)n1c2cnccc2c2cnc(Nc3ccc(N4CCC(NC)CC4)nn3)nc21 [Example 334] | 800
37 | NC(=O)CC1CCN(c2ccc(Nc3ncc4c5ccnc(F)c5n(C5CCCC5)c4n3)nc2)CC1 [Example 176, 2-(1-(6-((9-Cyclopentyl-8-fluoro-9H-pyrido[4′,3′:4,5]pyrrolo[2,3-d]pyrimidin-2-yl)amino)-3-pyridinyl)-4-piperidinyl)acetamide] | 930
38 | c1cc2c3cnc(Nc4cnc(N5CCOCC5)cn4)nc3n(C3CCCC3)c2cn1 [Example 84] | 22
39 | CC[C@H](C)n1c2cnccc2c2cnc(Nc3ccc(N4CC[C@@H](O)C4)cn3)nc21 [Example 336] | 2
40 | CC1(C)CN(c2ccc(Nc3ncc4c5ccncc5n(C5CCCC5)c4n3)nn2)CCN1 [Example 10] | 2.2
41 | c1cc2c3cnc(Nc4ccc(N5CCNC6(CCC6)C5)nn4)nc3n(C3CCCC3)c2cn1 [Example 246, 9-cyclopentyl-N-(6-(5,8-diazaspiro[3.5]non-8-yl)-3-pyridazinyl)-9H-pyrido[4′,3′:4,5]pyrrolo[2,3-d]pyrimidin-2-amine] | 70
42 | COC1CCN(c2cnc(Nc3ncc4c5ccncc5n(C5CCCC5)c4n3)cn2)C1 (stereo not shown) [Example 87] | 43
43 | N#CC1CCN(c2ccc(Nc3ncc4c5ccncc5n(C5CCCC5)c4n3)nn2)C1 (stereo not shown) [Example 118] | 4.2
44 | CC1CCN(c2ccc(Nc3ncc4c5ccncc5n(C5CCCC5)c4n3)nc2)C1 (stereo not shown) [Example 74] | 56
45 | C[C@H]1CN(c2cnc(Nc3ncc4c5ccncc5n(C5CCCC5)c4n3)cn2)CCN1 [Example 81] | 9.2
46 | c1cc2c3cnc(Nc4ccc(OC5CCNCC5)nn4)nc3n(C3CCCC3)c2cn1 [Example 268, 9-Cyclopentyl-N-(6-(4-piperidinyloxy)-3-pyridazinyl)-9H-pyrido[4′,3′:4,5]pyrrolo[2,3-d]pyrimidin-2-amine] | 11

From patent US8841312B2, “Fused pyridine, pyrimidine and triazine compounds as cell cycle inhibitors” (Amgen Inc., priority 2007, dated 2014)
